Measurements: patent US4504580A, “Antibiotics produced by fermentation of a novel strain of Streptomyces hygroscopicus” (Bristol-Myers Company, priority 1983, dated 1985)
In brackets after ≈: the same amount, converted by molar mass. Entries after “also recorded” stand apart in the source; their conditions may differ. Where two headings read alike, the source gives them in different places.

What was measured:
[1] = test system: species of Streptococcus and Mycobacterium; test: Antibacterial activity (MIC), overall, Streptococcus and Mycobacterium, Table 8; type: cell-based
Description: (§1) The minimum inhibitory concentrations (MIC) of Bu-2659A, B, C, D and E were determined for a variety of gram-positive and gram-negative bacteria by the serial two-fold agar dilution method using the Steer's multi-inoculating apparatus. The inoculum was standardized as a 10^4 dilution of an overnight culture of the test organisms in Heart Infusion Broth (Difco). […] Reference antibiotics utilized in these tests included commercially available neomycin as well as its components, neomycins B and C [as used herein, the term "neomycin" means the commercial product containing neomycins B and C at an approximate ratio of 7:3], paromomycin [the commercial product containing >90% of paromomycin I and <10% of paromomycin II] and ribostamycin.

[2] = test system: Neisseria and Haemophilus species; test: Antibacterial activity (MIC), overall, Neisseria and Haemophilus, Table 8; type: cell-based; details: compared with neomycin
Description: as §1

[3] = test system: Escherichia coli ML 1630; test: MIC, aminoglycoside-resistant E. coli ML 1630; type: cell-based; details: Escherichia coli, ML1630; Table 9; inactivating enzyme APH(3')-I; Mueller-Hinton agar; read-out: MIC
Description: as §1

[4] = test system: Proteus mirabilis A9554; test: MIC by serial two-fold agar dilution, P. mirabilis A9554; type: cell-based; details: Proteus mirabilis, A9554; Table 7; Mueller-Hinton agar; read-out: MIC
Description: as §1

[5] = test system: Serratia marcescens A20019; test: MIC by serial two-fold agar dilution, S. marcescens A20019; type: cell-based; details: Serratia marcescens, A20019; Table 7; Mueller-Hinton agar; read-out: MIC
Description: as §1

[6] = test system: gram-positive and gram-negative bacteria; test: In vitro antibacterial spectra (MIC), overall comparison, Table 7; type: cell-based; details: Table 7 organisms
Description: as §1

[7] = test system: Staphylococcus aureus 209P; test: MIC by serial two-fold agar dilution, S. aureus 209P; type: cell-based; details: Staphylococcus aureus, 209P; Table 7; Mueller-Hinton agar; read-out: MIC
Description: as §1

[8] = test system: Streptococcus pneumoniae Type I; test: MIC by serial two-fold agar dilution, S. pneumoniae Type I; type: cell-based; details: Streptococcus pneumoniae; Table 8; GC medium; read-out: MIC
Description: as §1

[9] = test system: Pseudomonas aeruginosa A9930; test: MIC by serial two-fold agar dilution, P. aeruginosa A9930; type: cell-based; details: Pseudomonas aeruginosa, A9930; Table 7; Mueller-Hinton agar; read-out: MIC
Description: as §1

[10] = test system: Staphylococcus aureus D136; test: MIC by serial two-fold agar dilution, S. aureus D136; type: cell-based; details: Staphylococcus aureus, D136; Table 7; Mueller-Hinton agar; read-out: MIC
Description: as §1

[11] = Acute toxicity in mice; type: in vivo; details: for LD50: mouse, in vivo, mice, read-out: LD50
Description: The acute toxicity of Bu-2659A was determined in mice by intravenous, intraperitoneal and subcutaneous routes. Neomycin also was tested for comparison purposes. […] The toxicity of Bu-2659A was approximately 1/3 that of neomycin in terms of LD50 values, thus presenting a potential clinical advantage for Bu-2659A.

[12] = test system: Neisseria meningitidis A21496; test: MIC by serial two-fold agar dilution, N. meningitidis A21496; type: cell-based; details: Neisseria meningitidis, A21496; Table 8; GC medium; read-out: MIC
Description: as §1

[13] = test system: Pseudomonas aeruginosa A20896; test: MIC, aminoglycoside-resistant P. aeruginosa A20896; type: cell-based; details: Pseudomonas aeruginosa, A20896; Table 9; inactivating enzyme AAC(3)-II; Mueller-Hinton agar; read-out: MIC
Description: as §1

[14] = test system: Mycobacterium ranae; test: MIC by serial two-fold agar dilution, M. ranae; type: cell-based; details: Mycobacterium; Table 8; No. 1001 medium; read-out: MIC
Description: as §1

[15] = test system: Escherichia coli A20107; test: MIC, aminoglycoside-resistant E. coli A20107; type: cell-based; details: Escherichia coli, A20107; Table 9; inactivating enzyme APH(3')-II; Mueller-Hinton agar; read-out: MIC
Description: as §1

[16] = test system: Escherichia coli NR79/W677; test: MIC, aminoglycoside-resistant E. coli NR79/W677; type: cell-based; details: Escherichia coli, NR79/W677
Description: as §1

[17] = test system: Escherichia coli Juhl; test: MIC by serial two-fold agar dilution, E. coli Juhl; type: cell-based; details: Escherichia coli; Table 7; Mueller-Hinton agar; read-out: MIC
Description: as §1

[18] = test system: Mycobacterium phlei; test: MIC by serial two-fold agar dilution, M. phlei; type: cell-based; details: Mycolicibacterium phlei; Table 8; No. 1001 medium; read-out: MIC
Description: as §1

[19] = test system: Escherichia coli A20732; test: MIC, aminoglycoside-resistant E. coli A20732; type: cell-based; details: Escherichia coli, A20732; Table 9; inactivating enzyme ANT(2"); Mueller-Hinton agar; read-out: MIC
Description: as §1

[20] = test system: Staphylococcus aureus A20239; test: MIC, aminoglycoside-resistant S. aureus A20239; type: cell-based; details: Staphylococcus aureus, A20239; Table 9; inactivating enzyme APH(3')-I,II; Mueller-Hinton agar; read-out: MIC
Description: as §1

[21] = test system: Proteus vulgaris A9436; test: MIC by serial two-fold agar dilution, P. vulgaris A9436; type: cell-based; details: Proteus vulgaris, A9436; Table 7; Mueller-Hinton agar; read-out: MIC
Description: as §1

[22] = test system: Staphylococcus aureus Smith; test: MIC by serial two-fold agar dilution, S. aureus Smith; type: cell-based; details: Staphylococcus aureus; Table 7; Mueller-Hinton agar; read-out: MIC
Description: as §1

[23] = test system: Haemophilus influenzae A9729; test: MIC by serial two-fold agar dilution, H. influenzae A9729; type: cell-based; details: Haemophilus influenzae, A9729; Table 8; GC medium; read-out: MIC
Description: as §1

[24] = test system: E. coli Juhl, K. pneumoniae D-11, P. mirabilis A9906, S. aureus Smith and S. pyogenes A20201; test: Experimental systemic infection in mice, overall; type: in vivo
Description: (§2) The in vivo activity of Bu-2659A was assessed by experimental systemic infection in mice. The pathogenic bacteria used in the in vivo tests were E. coli Juhl, K. pneumoniae D-11, P. mirabilis A9906, S. aureus Smith and S. pyogenes A20201. Mice were challenged intraperitoneally with approximately 100×LD50 dose of the pathogens in a 5% suspension of hog gastric mucin (American Laboratories, Omaha, Neb.). A single intramuscular treatment with the antibiotic was given immediately after the bacterial challenge. […] Neomycin was comparatively tested as a reference compound. […] In terms of PD50 value Bu-2659A was about one-half as active as neomycin against infections with S. aureus and S. pyogenes.

[25] = test system: resistant strains which produce APH(3') or AAC(3); test: Susceptibility of aminoglycoside resistant organisms (MIC), overall, Table 9; type: cell-based; details: several resistant strains which produce APH(3') or AAC(3)
Description: as §1

[26] = test system: Escherichia coli Juhl; test: Experimental systemic infection in mice, E. coli Juhl; type: in vivo; details: Escherichia coli, 96 h, im, single treatment, 4 days, read-out: PD50
Description: as §2

NC[C@@H]1O[C@H](O[C@H]2[C@@H](O)[C@H](O[C@@H]3[C@@H](O)[C@H](O)C[C@H](N)[C@H]3O[C@H]3O[C@H](CN)[C@@H](O)[C@H](O)[C@H]3N)O[C@@H]2CO)[C@H](N)[C@@H](O)[C@@H]1O [Bu-2659A, 1-deamino-1-hydroxyneomycin B]
activity against Streptococcus and Mycobacterium, in words [1]: equivalent activity | activity against Neisseria and Haemophilus, in words [2]: more active than neomycin | MIC [3]: > 100 µg/mL | MIC [4]: 0.8 µg/mL (≈ 1.3 µM) | MIC [5]: 3.1 µg/mL (≈ 5.04 µM) | in vitro antibacterial activity, in words [6]: highest activity among the five Bu-2659 components; also recorded: comparable to that of neomycin; also recorded: substantially the same level of antibacterial activity as neomycin B | MIC [7]: 0.8 µg/mL (≈ 1.3 µM) | MIC [8]: 25 µg/mL (≈ 40.6 µM) | MIC [9]: 1.6 µg/mL (≈ 2.6 µM) | MIC [10]: 0.8 µg/mL (≈ 1.3 µM) | acute toxicity compared with neomycin, in words ([11]; all routes of administration): significantly less toxic than neomycin | toxicity relative to neomycin in terms of LD50 values ([11]; intravenous, intraperitoneal, subcutaneous): approximately 1/3 | LD50 ([11]; ip, intraperitoneal): 460 mg/kg | LD50 ([11]; sc, subcutaneous): 720 mg/kg | LD50 ([11]; intravenous): 110 mg/kg | MIC [12]: 50 µg/mL (≈ 81.2 µM) | MIC [13]: > 100 µg/mL | MIC [14]: 0.4 µg/mL (≈ 0.65 µM) | MIC [15]: 25 µg/mL (≈ 40.6 µM) | MIC [16]: 50 µg/mL (≈ 81.2 µM) | MIC [17]: 3.1 µg/mL (≈ 5.04 µM) | MIC [18]: 0.1 µg/mL (≈ 0.162 µM) | MIC [19]: 0.8 µg/mL (≈ 1.3 µM) | MIC [20]: 12.5 µg/mL (≈ 20.3 µM) | MIC [21]: 0.4 µg/mL (≈ 0.65 µM) | MIC [22]: 1.6 µg/mL (≈ 2.6 µM) | MIC [23]: 50 µg/mL (≈ 81.2 µM) | protection in mice, in words ([24]; five experimental infections): excellent protection | in vivo activity relative to neomycin, in terms of PD50 ([24]; infections with S. aureus and S. pyogenes): about one-half | in vivo activity compared with neomycin, in words ([24]; infections with three gram-negative bacteria): comparable to that of neomycin | activity against aminoglycoside-resistant strains, in words [25]: more active than neomycin, paromomycin and ribostamycin | ED50 [26]: 3.1 mg/kg
